Assays:
[1] = Observation of the general state and body weight in ovariectomized rats; format: in vivo, SD rats; conditions: daily observation
[2] = tested on: ovariectomized SD rats (rat osteoporosis model), femora; assay: Animal efficacy test of increasing bone density and preventing osteoporosis (ovariectomized rat osteoporosis model); format: in vivo; conditions: left femora, 0.1 mg/100 g per day oral gavage, three months, N = 12, x ± s.d.

CCCCC(=O)O[C@H]1CC[C@H]2[C@@H]3CCc4cc(O)ccc4[C@H]3CC[C@]12C [positive control, estradiol valerate]
general state (exterior signs, behaviors, fecal property) compared with the model control group [1]: did not have significant difference in terms of exterior signs, behaviors, fecal property | bone calcium content [2]: 178.2 ± 29.3 mg/g | bone density BMD [2]: 0.207 ± 0.010 g/mL

From patent US20170014462A1, “BONE AND JOINT PROTECTION COMPOSITION AND USE THEREOF” (INFINITUS (CHINA) COMPANY LTD., priority 2015, published 2017)
